Measured values published in patent US20140030234A1, “METHODS AND COMPOSITIONS FOR MODULATING ISLET BETA CELL DEVELOPMENT” (The Board of Trustees of the Leland Stanford Junior …, priority 2012, published 2014).

What was measured:
neonatal human islets = test: BrdU incorporation, β-cell proliferation in human islets; type: cell-based; details: islets of donor, FK506 vs vehicle (FIG. 6G-H)
Protocol: Human islet studies. Human islet samples were obtained from healthy, non-diabetic organ donors deceased due to acute traumatic or anoxic death and offered by NDR1 (National Diseases Resource Interchange). Islets were isolated by Bottino, R. at the University of Pittsburg, or by Bryant, S, and Thompson A. at the University of Alabama, Birmingham. […] After isolation, islets were shipped directly to our laboratory and were transferred to fresh islet culture medium (RPMI 1640 with 4.5 mM glucose containing 10% FBS and 1% pen/strep). As with mouse islets, islet samples were split and treated with either vehicle (DMSO) or FK506 ([…], LC laboratories) for 72 hours, with medium changes every 24 hours. Islets were then handpicked with dithizone staining and aliquots of 1000 IEQ were spun down and snap frozen for mRNA isolation or crosslinked as described above for ChIP studies. BrdU analysis was performed on the donor batch by treating islets with 50 uM BrdU and chasing for 24 hrs. Afterwards, islets were placed in 2% agarose and processed within paraffin blocks as described above. Islets were immunostained for insulin and BrdU and β-cell proliferation rate was determined by quantifying the percentage of insulin+ and BrdU^+ cells. A minimum of 50 islets and over 2000 β-cells were scored per condition.

[1] = cited from earlier work
NFATc1 [2] = test: ChIP of NFATc1 on isolated human islets; type: cell-based; set-up: NFATc1 association at CCNA2, CCND2 and FOXM1 promoter sites: dose or concentration left out as unconfirmed
Protocol: Islets from P20 C57/BL6 mice were isolated (as above) and fixed with 1% formaldehyde for 10 minutes at room temperature. Cross-linking was quenched by the addition of 0.125 M glycine and islets were washed in DPBS. ChIPs were then performed using the EZ-Magna ChIP™ G Chromatin Immunoprecipitation Kit (Millipore), following the manufacturer's protocol. Briefly, following cell and nuclear lysis, islets were sonicated to shear chromatin using a Bioruptor Sonicator (Diagenode) at maximum power; set for 15 seconds ON followed by 45 seconds OFF for a total time of 10 minutes. Precleared chromatin from 200-300 islets was used for each ChIP sample with incubation of 1 to 10 ug of the appropriate antibodies overnight at 4° C. Before IP, 1/10 of the extract was saved for use as the input. […] Resulting chromatin was then amplified using the GenomePlex WGA4 Whole Genome Amplification Kit (Sigma) and quantified using nanodrop. Equal amounts of chromatin DNA were then analyzed by quantitative PCR in the ABI Prism 7500 detection system (Applied Biosystems) using Power SYBR Green PCR Master Mix (Applied Biosystems). […]
Human islet studies. […] Islets were immunostained for insulin and BrdU and β-cell proliferation rate was determined by quantifying the percentage of insulin+ and BrdU^+ cells. A minimum of 50 islets and over 2000 β-cells were scored per condition.

cultured human islets = cultured human islets exposed to FK506; cited from earlier work
cultured P10 islets = test: qRT-PCR of mRNA in cultured P10 mouse islets exposed to glucokinase activator with or without FK506; type: cell-based
Protocol: (§1) Quantitative Real-time RT-PCR. Mouse islets were isolated by standard collagenase pancreatic perfusion as previously described (Heit et al. (2006a), supra). Total islet mRNA was then isolated using the RNeasy Microkit (QIAGEN) according to the manufacturer's instructions and RNA amount and purity were assessed by Nanodrop spectrophotometry. Any remaining contaminant DNA was removed by treating samples with 1 unit of RNAse-free DNAse (Fermentas). Next, cDNA was prepared from 750 ng of total islet RNA using the RETROscript kit (Ambion) and analyzed by quantitative real-time PCR (QPCR) using TaqMan Universal PCR Master Mix (ABI) and the ABI Prism 7500 detection system. For culture studies, islets harvested from mice of the indicated genotype were placed in standard media (RPMI 1640 with 4.5 mM glucose containing 10% FBS and 1% pen/strep) at 37° C. and 5% CO2. For some experiments islets were maintained in media containing vehicle (DMSO), glucokinase activator (GKA) R0-28-1675 (10 μM; Axon Ligands) and/or FK506 (10 μM; LC Laboratories) for 72 hours, with media changes every 24 hours. Additionally, β-cells from MIP-EGFP islets were isolated using fluorescence-activated cell sorting as previously described (Sugiyama, T., et al. (2007). Conserved markers of fetal pancreatic epithelium permit prospective isolation of islet progenitor cells by FACS. Proc. Natl. Acad. Sci. U.S.A 104, 175-180) and processed as above for analysis by QPCR. Each quantitative analysis was performed in triplicate and islets from 3 to 6 mice of each genotype were independently tested. Data are normalized to β-actin and results are expressed as the mean±S.E.M.

NFATc1 [3] = test: Chromatin immunoprecipitation (ChIP) of NFATc1 in mouse islets; type: cell-based
Protocol: Islets from P20 C57/BL6 mice were isolated (as above) and fixed with 1% formaldehyde for 10 minutes at room temperature. Cross-linking was quenched by the addition of 0.125 M glycine and islets were washed in DPBS. ChIPs were then performed using the EZ-Magna ChIP™ G Chromatin Immunoprecipitation Kit (Millipore), following the manufacturer's protocol. Briefly, following cell and nuclear lysis, islets were sonicated to shear chromatin using a Bioruptor Sonicator (Diagenode) at maximum power; set for 15 seconds ON followed by 45 seconds OFF for a total time of 10 minutes. Precleared chromatin from 200-300 islets was used for each ChIP sample with incubation of 1 to 10 ug of the appropriate antibodies overnight at 4° C. Before IP, 1/10 of the extract was saved for use as the input. Antibodies used for IP were mouse monoclonal anti-RNA Polymerase (1 ug, Millipore, 05-623B), rabbit anti-IgG (1 ug, Santa Cruz, sc-2027), and rabbit anti-NFATc1 (5 ug, Imgenex, #IMG-5101A). Resulting chromatin was then amplified using the GenomePlex WGA4 Whole Genome Amplification Kit (Sigma) and quantified using nanodrop. Equal amounts of chromatin DNA were then analyzed by quantitative PCR in the ABI Prism 7500 detection system (Applied Biosystems) using Power SYBR Green PCR Master Mix (Applied Biosystems). […]

[4] = system: islets isolated from WT, P20 mice; test: qRT-PCR of mRNA in cultured neonatal mouse islets exposed to FK506; type: cell-based
Protocol: as §1

human islets = test: qRT-PCR of mRNA in cultured human islets exposed to FK506; type: cell-based; details: 72 hr
Protocol: Quantitative Real-time RT-PCR. Mouse islets were isolated by standard collagenase pancreatic perfusion as previously described (Heit et al. (2006a), supra). Total islet mRNA was then isolated using the RNeasy Microkit (QIAGEN) according to the manufacturer's instructions and RNA amount and purity were assessed by Nanodrop spectrophotometry. Any remaining contaminant DNA was removed by treating samples with 1 unit of RNAse-free DNAse (Fermentas). Next, cDNA was prepared from 750 ng of total islet RNA using the RETROscript kit (Ambion) and analyzed by quantitative real-time PCR (QPCR) using TaqMan Universal PCR Master Mix (ABI) and the ABI Prism 7500 detection system. Human islet studies. Human islet samples were obtained from healthy, non-diabetic organ donors deceased due to acute traumatic or anoxic death and offered by NDR1 (National Diseases Resource Interchange). Islets were isolated by Bottino, R. at the University of Pittsburg, or by Bryant, S, and Thompson A. at the University of Alabama, Birmingham. […] After isolation, islets were shipped directly to our laboratory and were transferred to fresh islet culture medium (RPMI 1640 with 4.5 mM glucose containing 10% FBS and 1% pen/strep). As with mouse islets, islet samples were split and treated with either vehicle (DMSO) or FK506 ([…], LC laboratories) for 72 hours, with medium changes every 24 hours. Islets were then handpicked with dithizone staining and aliquots of 1000 IEQ were spun down and snap frozen for mRNA isolation or crosslinked as described above for ChIP studies. BrdU analysis was performed on the donor batch by treating islets with 50 uM BrdU and chasing for 24 hrs. Afterwards, islets were placed in 2% agarose and processed within paraffin blocks as described above. Islets were immunostained for insulin and BrdU and β-cell proliferation rate was determined by quantifying the percentage of insulin+ and BrdU^+ cells. A minimum of 50 islets and over 2000 β-cells were scored per condition.

[5] = WT P20 mouse islets, FK506 10 μM, 72 hr, vs vehicle (FIG. 3F)
[6] = FK506 10 μM, vs vehicle (FIG. 4A)

NFATc1 binding at CHGA, CHGB, IAPP, and IA2 sites (NFATc1 [2]; human islets, FK506 10 μM, 24 hr (FIG. 4B)): consistently reduced
GKA induction of CcnA2, CcnD2 and FoxM1 mRNAs (cultured P10 islets; P10 islets, simultaneous exposure to FK506, 10 μM each, 72 hr (FIG. 7D)): attenuated or blocked
GKA elevation of Insulin 2 (Ins2) levels (cultured P10 islets; WT P10 islets, GKA+FK506, 10 μM each, 72 hr (FIG. 7B)): blunted
GKA induction of NFATc1 mRNA (cultured P10 islets; WT P10 islets, simultaneous exposure to FK506 and GKA, 10 μM each, 72 hr (FIG. 7A)): blocked
GKA increase of ChgA, ChgB, IAPP, and IA2 mRNAs (cultured P10 islets; neonatal P10 islets, GKA+FK506, 10 μM each, 72 hr (FIG. 7C)): eliminated or significantly reduced
Structure (SMILES): C=CC[C@@H]1/C=C(\C)C[C@H](C)C[C@H](OC)[C@H]2O[C@@](O)(C(=O)C(=O)N3CCCC[C@H]3C(=O)O[C@H](/C(C)=C/[C@@H]3CC[C@@H](O)[C@H](OC)C3)[C@H](C)[C@@H](O)CC1=O)[C@H](C)C[C@@H]2OC [FK506, tacrolimus]
reduction of β-cell BrdU incorporation (neonatal human islets): ~3 fold
incidence of diabetes mellitus ([1]; patients administered calcineurin inhibitors): high incidence
patients developing diabetes mellitus ([1]; patients requiring immunosuppression with calcineurin inhibitors): 10-30%
NFATc1 association at CCNA2, CCND2 and FOXM1 promoter sites (NFATc1 [2]; neonatal human islets): FK506-sensitive
DCG numbers (cultured human islets): reduced
insulin secretion (cultured human islets): impaired
NFATc1 binding at ChgA, ChgB and IA2 promoters (NFATc1 [3]; WT P20 mouse islets, FK506 24 hr (FIG. 3K)): reduced to levels comparable to IgG controls
NFATc1 binding at CcnD2, FoxM1 and CcnA2 promoter sites (NFATc1 [3]; WT neonatal mouse islets, FK506 24 hr (FIG. 5J)): consistently reduced NFATc1 binding to background levels
levels of Hnf4a mRNA [4, 5]: remained unchanged
levels of Ins1, Ins2, ChgA, ChgB, IAPP and IA2 mRNA [4, 5]: significantly reduced
levels of CcnA2, CcnD2 and FoxM1 mRNAs ([4]; neonatal WT mouse islets, FK506, 72 hr, vs vehicle (FIG. 5E)): significantly decreased
CCNA2, CCND2 and FOXM1 mRNA levels (human islets; vs vehicle (FIG. 6F)): significantly decreased
islet levels of mRNA encoding HNF4a (human islets; [6]): unaffected
mRNAs encoding INS, CHGA, CHGB, IAPP, and IA2 (human islets; [6]): reduction
